Experiments:
Test in all cases: relative viability (nuclei count vs DMSO), 5 days (fraction); higher = more cells survive
[1] = compound: CC1=NC=CC(=C1)C2=CC=C(C=C2)CC(=O)NC3=CC=C(C=C3)C4=CN=CC=C4 [Wnt-C59] + CC(=O)Nc1cccc(-n2c(=O)n(C3CC3)c(=O)c3c(Nc4ccc(I)cc4F)n(C)c(=O)c(C)c32)c1 [Trametinib] (partner 0.02 µM)
In short: (§1)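 Lung cancer cell lines were seeded in 1536-well plates and dosed by pin tool the next day, with either a single drug or a fixed anchor-drug dose combined with five library-drug doses (not always all listed) spaced in √10 steps. Five days later, one step fixed the cells and stained their nuclei (final 0.05% Triton X-100, 1% formaldehyde, 1 ug/ml Hoechst), and nuclei were counted on 4× images. Relative viability is the nuclei count in treated wells divided by the count in vehicle wells, and each value is the median of duplicate plates.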

[2] = compound: CS(=O)(=O)CCNCc1ccc(-c2ccc3ncnc(Nc4ccc(OCc5cccc(F)c5)c(Cl)c4)c3c2)o1 [Lapatinib] + CC(=O)c1c(C)c2cnc(Nc3ccc(N4CCNCC4)cn3)nc2n(C2CCCC2)c1=O [Palbociclib] (partner 0.5 µM)
In short: as §1

[3] = compound: CC1=NC=CC(=C1)C2=CC=C(C=C2)CC(=O)NC3=CC=C(C=C3)C4=CN=CC=C4 [Wnt-C59] + COc1cccc2cc(-c3nc([C@H]4CC[C@H](C(=O)O)CC4)n4ncnc(N)c34)[nH]c12 [OSI-027] (partner 0.5 µM)
In short: as §1

[4] = compound: CC1=NC=CC(=C1)C2=CC=C(C=C2)CC(=O)NC3=CC=C(C=C3)C4=CN=CC=C4 [Wnt-C59] + O=C(c1cc(Cc2n[nH]c(=O)c3ccccc23)ccc1F)N1CCN(C(=O)C2CC2)CC1 [Olaparib] (partner 8 µM)
In short: as §1

Cell Line | relative viability ([1]; first compound 0.001 µM) | relative viability ([1]; first compound 0.01 µM) | relative viability ([1]; first compound 0.03162 µM) | relative viability ([1]; first compound 0.1 µM) | relative viability ([2]; first compound 0.02 µM) | relative viability ([2]; first compound 0.2 µM) | relative viability ([2]; first compound 0.6325 µM) | relative viability ([2]; first compound 2 µM) | relative viability ([3]; first compound 0.001 µM) | relative viability ([3]; first compound 0.01 µM) | relative viability ([3]; first compound 0.03162 µM) | relative viability ([3]; first compound 0.1 µM) | relative viability ([4]; first compound 0.001 µM) | relative viability ([4]; first compound 0.01 µM) | relative viability ([4]; first compound 0.03162 µM) | relative viability ([4]; first compound 0.1 µM) | relative viability ([2]; first compound 0.06325 µM)
NCI-H441 | 0.474 | 0.451 | 0.465 | 0.434 | 0.222 | 0.176 | 0.236 | 0.185 | 0.754 | 0.616 | 0.718 | 0.568 | 0.569 | 0.632 | 0.633 | 0.447 | –
NCI-H1755 | 0.797 | 0.792 | 0.759 | 0.719 | 0.475 | 0.423 | 0.417 | 0.48 | 0.8 | 0.72 | 0.644 | 0.663 | 0.944 | 0.851 | 0.888 | 0.798 | 0.463
EKVX | 0.366 | – | 0.324 | 0.319 | – | 0.265 | 0.22 | 0.145 | 0.728 | 0.574 | 0.648 | 0.565 | 0.837 | – | 0.906 | 0.72 | 0.337
IA-LM | – | – | – | – | – | – | – | – | – | – | – | – | 0.848 | 0.873 | 0.969 | 0.712 | –
A-427 | 0.749 | 0.746 | 0.81 | 0.876 | 0.544 | 0.526 | 0.524 | 0.483 | 0.479 | 0.457 | 0.478 | 0.503 | 0.767 | 0.79 | 0.751 | 0.789 | 0.518
NCI-H1299 | – | – | – | – | – | – | – | – | – | – | – | – | 0.918 | 0.953 | 0.932 | 0.937 | –
NCI-H1993 | 0.634 | 0.486 | 0.507 | 0.465 | 0.687 | 0.471 | 0.588 | 0.433 | 0.582 | – | 0.57 | 0.544 | 1.17 | 1.06 | 1.11 | 0.413 | –
NCI-H1651 | 0.857 | 0.875 | 0.783 | 0.773 | 0.547 | 0.483 | 0.478 | 0.514 | 0.767 | 0.646 | 0.696 | 0.709 | 0.202 | 0.164 | 0.203 | 0.184 | 0.456
LXF-289 | 0.617 | 0.629 | 0.73 | 0.632 | 0.615 | 0.588 | 0.577 | 0.526 | 0.779 | 0.807 | 0.828 | 0.809 | 1.14 | 1.09 | 1.03 | 1.04 | 0.588
NCI-H23 | 0.396 | 0.346 | 0.385 | 0.432 | – | 0.488 | 0.512 | 0.457 | 0.634 | 0.499 | 0.781 | 0.578 | 0.353 | 0.256 | 0.362 | 0.333 | –
LU99A | 0.583 | 0.474 | 0.569 | 0.506 | 0.449 | 0.385 | 0.424 | 0.39 | 0.307 | 0.281 | 0.342 | 0.274 | 0.28 | 0.264 | 0.29 | 0.23 | 0.299
